# Target: T1, mGlyT-1b (Mus musculus, UniProt P28571)
# T1 construct: host or cells: Flp-in-CHO cells
# T1 sequence (P28571 1-651 isoform P28571-2): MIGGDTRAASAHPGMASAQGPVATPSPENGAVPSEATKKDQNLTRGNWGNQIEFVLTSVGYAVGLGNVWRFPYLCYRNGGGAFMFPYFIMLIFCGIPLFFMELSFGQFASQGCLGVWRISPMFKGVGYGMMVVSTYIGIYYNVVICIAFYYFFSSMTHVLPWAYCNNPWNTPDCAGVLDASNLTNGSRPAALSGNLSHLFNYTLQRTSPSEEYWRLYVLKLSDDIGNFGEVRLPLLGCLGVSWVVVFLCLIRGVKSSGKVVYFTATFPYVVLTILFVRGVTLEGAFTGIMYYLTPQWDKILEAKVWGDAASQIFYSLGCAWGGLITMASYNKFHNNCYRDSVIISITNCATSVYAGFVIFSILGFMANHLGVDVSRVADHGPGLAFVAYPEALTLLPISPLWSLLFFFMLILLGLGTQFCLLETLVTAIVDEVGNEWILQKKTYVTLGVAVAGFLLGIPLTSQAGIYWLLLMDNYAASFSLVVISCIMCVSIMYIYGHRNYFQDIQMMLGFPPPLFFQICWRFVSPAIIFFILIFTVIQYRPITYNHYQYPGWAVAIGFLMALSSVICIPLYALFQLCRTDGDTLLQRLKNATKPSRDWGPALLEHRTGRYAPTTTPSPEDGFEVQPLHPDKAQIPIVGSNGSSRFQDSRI
# Assay: Glycine Uptake Inhibition Assay (mGlyT-1b)
# Format: cell-based
# Conditions: [3H]-glycine uptake inhibition at GlyT-1, Flp-in-CHO cells transfected with mGlyT-1b cDNA
# How it was run: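 Flp-in CHO cells stably expressing mouse GlyT-1b preincubated 20 min at 22 °C with inhibitor in pH 7.4 uptake buffer, then given 60 nM [3H]-glycine plus 25 μM unlabelled glycine. Cell radioactivity counted by scintillation; nonspecific uptake defined with 10 mM glycine; IC50 from concentration range.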
row,IC50 [nM],SMILES
1,25,CS(=O)(=O)c1ccc(N2CCN(C(=O)c3cc(S(C)(=O)=O)ccc3OC3CCCCC3)CC2)c(F)c1 [compound 288]
2,17,CC(C)(C)COc1ccc(S(C)(=O)=O)cc1C(=O)N1CCN(c2ccc(C#N)cc2)CC1 [compound 290]
3,13,CC(C)(C)COc1ccc(S(C)(=O)=O)cc1C(=O)N1CCN(c2ccc(C#N)cc2F)CC1 [compound 291]
4,21,CC(C)(C)COc1ccc(S(C)(=O)=O)cc1C(=O)N1CCN(c2ccc(C#N)c(F)c2)CC1 [compound 292]
5,34,CC(C)(C)COc1ccc(S(C)(=O)=O)cc1C(=O)N1CCN(c2ccc(C(F)(F)F)cc2)CC1 [compound 293]
6,37,CC(C)(C)COc1ccc(S(C)(=O)=O)cc1C(=O)N1CCN(c2ccc(C(F)(F)F)cc2F)CC1 [compound 294]
7,16,CC(C)(C)COc1ccc(S(C)(=O)=O)cc1C(=O)N1CCN(c2ccc(C(F)(F)F)c(F)c2)CC1 [compound 295]
8,43,CC(C)(C)COc1ccc(S(C)(=O)=O)cc1C(=O)N1CCN(c2ccc(S(C)(=O)=O)cc2F)CC1 [compound 296]
9,30,CC(Oc1ccc(S(C)(=O)=O)cc1C(=O)N1CCN(c2ccc(C(F)(F)F)cc2)CC1)C(F)(F)F (stereo not drawn) [compound 301]
10,45,CC(=O)c1ccc(N2CCN(C(=O)c3cc(S(C)(=O)=O)ccc3OC3CCC3)CC2)c(F)c1 [compound 311]
11,18,CS(=O)(=O)c1ccc(OC2CCC2)c(C(=O)N2CCN(c3ccc(C#N)cc3F)CC2)c1 [compound 313]
12,41,CS(=O)(=O)c1ccc(OC2CCC2)c(C(=O)N2CCN(c3ccc(C(F)(F)F)c(F)c3)CC2)c1 [compound 317]
13,8,CC(C)Oc1ccc(S(C)(=O)=O)cc1C(=O)N1CCN(c2ccc(C(F)(F)F)cc2C#N)CC1 [compound 363]
14,36,CC(=O)c1ccc(N2CCN(C(=O)c3cc(S(C)(=O)=O)ccc3OC(C)C)CC2)cc1F [compound 367]
15,32,CC(=O)c1ccc(N2CCN(C(=O)c3cc(S(C)(=O)=O)ccc3OCC3CC3)CC2)cc1F [compound 369]
16,41,CC(C)COc1ccc(S(C)(=O)=O)cc1C(=O)N1CCN(c2ccc(S(C)(=O)=O)c(F)c2)CC1 [compound 371]
17,6,CC(=O)c1ccc(N2CCN(C(=O)c3cc(S(C)(=O)=O)ccc3OCC(C)C)CC2)cc1F [compound 372]
18,35,CS(=O)(=O)c1ccc(OC2CCCC2)c(C(=O)N2CCN(c3ccc(C(F)(F)F)cc3C#N)CC2)c1 [compound 373]
19,35,CC(C)COc1ccc(S(C)(=O)=O)cc1C(=O)N1CCN(c2ccc(C(F)(F)F)cc2C#N)CC1 [compound 375]
20,32,CCS(=O)(=O)c1ccc(OC(C)C)c(C(=O)N2CCN(c3ccc(C(F)(F)F)cc3F)CC2)c1 [compound 393]
21,23,CC(C)Oc1ccc(S(C)(=O)=O)cc1C(=O)N1CCN(c2ccc(C(F)F)cc2F)CC1 [compound 400]

row,IC50 [nM],SMILES
1,45,CS(=O)(=O)c1ccc(OC2CCCC2)c(C(=O)N2CCN(c3ccc(C#N)cn3)CC2)c1 [compound 411]
2,33,CS(=O)(=O)c1ccc(OC2CCCC2)c(C(=O)N2CCN(c3ccc(C(F)(F)F)cn3)CC2)c1 [compound 412]
3,30,CS(=O)(=O)c1ccc(OC2CCCC2)c(C(=O)N2CCN(c3ncc(C(F)(F)F)cc3Cl)CC2)c1 [compound 413]
4,46,CC(C)Oc1ccc(S(C)(=O)=O)cc1C(=O)N1CCN(c2ncc(C(F)(F)F)cc2Cl)CC1 [compound 417]
5,37,CS(=O)(=O)c1ccc(OC2CCCC2)c(C(=O)N2CCN(c3ccc(C(F)(F)F)nc3)CC2)c1 [compound 430]
6,26,CC(C)Oc1ccc(S(C)(=O)=O)cc1C(=O)N1CCN(c2ncc(C(F)(F)F)cc2F)CC1 [compound 437]
7,21,CS(=O)(=O)c1ccc(OC2CCCC2)c(C(=O)N2CCN(c3ncc(C(F)(F)F)cc3F)CC2)c1 [compound 439]
8,46,CC(C)Oc1ccc(S(C)(=O)=O)cc1C(=O)N1CCN(c2ccc(C=O)cc2F)CC1 [compound 461]
9,40,CNS(=O)(=O)c1ccc(OCC(C)C)c(C(=O)N2CCN(c3ccc(C#N)c(F)c3)CC2)c1 [compound 475]
10,30,CNS(=O)(=O)c1ccc(OCC2CCC2)c(C(=O)N2CCN(c3ccc(C#N)c(F)c3)CC2)c1 [compound 481]
11,39,CNS(=O)(=O)c1ccc(OCC(C)C)c(C(=O)N2CCN(c3ccc(C#N)cc3)CC2)c1 [compound 488]
12,37,CNS(=O)(=O)c1ccc(OC2CCCC2)c(C(=O)N2CCN(c3ccc(C#N)cc3)CC2)c1 [compound 491]
13,30,CNS(=O)(=O)c1ccc(OCC2CCC2)c(C(=O)N2CCN(c3ccc(C#N)cc3)CC2)c1 [compound 494]
14,25,CNS(=O)(=O)c1ccc(OCC(C)C)c(C(=O)N2CCN(c3ccc(C#N)cc3F)CC2)c1 [compound 504]
15,24,CNS(=O)(=O)c1ccc(OCC(C)(C)C)c(C(=O)N2CCN(c3ccc(C#N)cc3F)CC2)c1 [compound 505]
16,46,CNS(=O)(=O)c1ccc(OC(C)C)c(C(=O)N2CCN(c3ccc(C#N)cc3F)CC2)c1 [compound 506]
17,31,CNS(=O)(=O)c1ccc(OC2CCCC2)c(C(=O)N2CCN(c3ccc(C#N)cc3F)CC2)c1 [compound 507]
18,30,CNS(=O)(=O)c1ccc(OCC2CC2)c(C(=O)N2CCN(c3ccc(C#N)cc3F)CC2)c1 [compound 509]
19,15,CNS(=O)(=O)c1ccc(OCC2CCC2)c(C(=O)N2CCN(c3ccc(C#N)cc3F)CC2)c1 [compound 510]
20,45,CNS(=O)(=O)c1ccc(OCC(C)C)c(C(=O)N2CCN(c3ccc(C(C)=O)cc3F)CC2)c1 [compound 514]
21,40,CNS(=O)(=O)c1ccc(OCC(C)(C)C)c(C(=O)N2CCN(c3ccc(C(C)=O)cc3F)CC2)c1 [compound 515]

row,IC50 [nM],SMILES
1,35,CNS(=O)(=O)c1ccc(OC2CCCC2)c(C(=O)N2CCN(c3ccc(C(C)=O)cc3F)CC2)c1 [compound 517]
2,35,CNS(=O)(=O)c1ccc(OCC2CC2)c(C(=O)N2CCN(c3ccc(C(C)=O)cc3F)CC2)c1 [compound 519]
3,12,CNS(=O)(=O)c1ccc(OCC(C)C)c(C(=O)N2CCN(c3ccc(C(F)(F)F)cc3)CC2)c1 [compound 524]
4,21,CNS(=O)(=O)c1ccc(OCC(C)(C)C)c(C(=O)N2CCN(c3ccc(C(F)(F)F)cc3)CC2)c1 [compound 525]
5,9,CNS(=O)(=O)c1ccc(OC(C)C)c(C(=O)N2CCN(c3ccc(C(F)(F)F)cc3)CC2)c1 [compound 526]
6,6,CNS(=O)(=O)c1ccc(OC2CCCC2)c(C(=O)N2CCN(c3ccc(C(F)(F)F)cc3)CC2)c1 [compound 527]
7,15,CNS(=O)(=O)c1ccc(OC2CCC2)c(C(=O)N2CCN(c3ccc(C(F)(F)F)cc3)CC2)c1 [compound 528]
8,13,CNS(=O)(=O)c1ccc(OCC2CC2)c(C(=O)N2CCN(c3ccc(C(F)(F)F)cc3)CC2)c1 [compound 529]
9,5.7,CNS(=O)(=O)c1ccc(OCC2CCC2)c(C(=O)N2CCN(c3ccc(C(F)(F)F)cc3)CC2)c1 [compound 530]
10,28,CNS(=O)(=O)c1ccc(OCCC(F)(F)F)c(C(=O)N2CCN(c3ccc(C(F)(F)F)cc3)CC2)c1 [compound 531]
11,49,CNS(=O)(=O)c1ccc(OCC(F)(F)F)c(C(=O)N2CCN(c3ccc(C#N)cc3F)CC2)c1 [compound 534]
12,30,CNS(=O)(=O)c1ccc(OCC(F)(F)F)c(C(=O)N2CCN(c3ccc(C(F)(F)F)cc3)CC2)c1 [compound 537]
13,35,N#Cc1ccc(N2CCN(C(=O)c3cc(S(=O)(=O)C4CC4)ccc3OC3CCCC3)CC2)c(F)c1 [compound 546]
14,38,COCCS(=O)(=O)c1ccc(N2CCN(C(=O)c3cc(S(C)(=O)=O)ccc3OC(C)C)CC2)c(F)c1 [compound 561]
15,44,CCS(=O)(=O)c1ccc(N2CCN(C(=O)c3cc(S(C)(=O)=O)ccc3OCC3CC3)CC2)c(F)c1 [compound 562]
16,43,CCS(=O)(=O)c1ccc(N2CCN(C(=O)c3cc(S(C)(=O)=O)ccc3OC3CCCC3)CC2)c(F)c1 [compound 563]
17,41,CCS(=O)(=O)c1ccc(N2CCN(C(=O)c3cc(S(C)(=O)=O)ccc3OC3CCCCC3)CC2)c(F)c1 [compound 564]
18,30,CCS(=O)(=O)c1ccc(N2CCN(C(=O)c3cc(S(C)(=O)=O)ccc3OCC(C)C)CC2)c(F)c1 [compound 566]
19,46,CC(C)Oc1ccc(S(C)(=O)=O)cc1C(=O)N1CCN(c2ccc(S(=O)(=O)C3CCC3)cc2F)CC1 [compound 570]
20,50,CC(C)Oc1ccc(S(C)(=O)=O)cc1C(=O)N1CCN(c2ccc(S(=O)(=O)C3CCCC3)cc2F)CC1 [compound 571]
21,37,CS(=O)(=O)c1ccc(OC2CCCC2)c(C(=O)N2CCN(c3ccc(S(=O)(=O)C4CC4)cc3F)CC2)c1 [compound 573]

# From US7605163B2, “Benzoyl-piperazine derivatives” (Hoffmann-La Roche Inc., priority 2003, dated 2009)
